For assay [1], the system named is T-24. Nature of the assay: Induction of alpha tubulin acetylation in human T24 cells. It is filed as functional, cell-based.
Assay [2] deals with T-24. Kind of assay: Induction of histone H3 acetylation in human T24 cells. The class given is functional, cell-based.
For a further assay, the target named is T1, Histone deacetylase 8 (Homo sapiens, UniProt Q9BY41).
T1 sequence (Q9BY41 whole entry): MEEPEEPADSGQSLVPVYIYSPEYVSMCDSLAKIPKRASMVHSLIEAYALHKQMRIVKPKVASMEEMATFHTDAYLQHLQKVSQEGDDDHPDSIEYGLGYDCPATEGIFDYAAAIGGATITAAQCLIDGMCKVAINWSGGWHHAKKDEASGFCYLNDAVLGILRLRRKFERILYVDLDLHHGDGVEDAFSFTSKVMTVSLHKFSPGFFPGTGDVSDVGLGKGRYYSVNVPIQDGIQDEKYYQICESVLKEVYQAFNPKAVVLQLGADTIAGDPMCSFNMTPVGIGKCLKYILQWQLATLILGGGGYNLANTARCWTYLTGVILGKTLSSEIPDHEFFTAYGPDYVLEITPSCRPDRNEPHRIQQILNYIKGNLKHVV
Kind of assay: Inhibition of human recombinant histone deacetylase 8.

Assay [3] is filed under the species Homo sapiens. Nature of the assay: Selectivity ratio of IC50 for human recombinant histone deacetylase 2 to IC50 for human recombinant histone deacetylase 6.
The species named for assay [4] is Homo sapiens. Nature of the assay: Selectivity ratio of IC50 for human recombinant histone deacetylase 8 to IC50 for human recombinant histone deacetylase 6.
A further assay addresses Histone deacetylase 2 (Homo sapiens, UniProt Q92769).
Assay [5] concerns the target T2, Protein deacetylase HDAC6 (Homo sapiens, UniProt Q9UBN7).
T2 sequence (Q9UBN7 whole entry): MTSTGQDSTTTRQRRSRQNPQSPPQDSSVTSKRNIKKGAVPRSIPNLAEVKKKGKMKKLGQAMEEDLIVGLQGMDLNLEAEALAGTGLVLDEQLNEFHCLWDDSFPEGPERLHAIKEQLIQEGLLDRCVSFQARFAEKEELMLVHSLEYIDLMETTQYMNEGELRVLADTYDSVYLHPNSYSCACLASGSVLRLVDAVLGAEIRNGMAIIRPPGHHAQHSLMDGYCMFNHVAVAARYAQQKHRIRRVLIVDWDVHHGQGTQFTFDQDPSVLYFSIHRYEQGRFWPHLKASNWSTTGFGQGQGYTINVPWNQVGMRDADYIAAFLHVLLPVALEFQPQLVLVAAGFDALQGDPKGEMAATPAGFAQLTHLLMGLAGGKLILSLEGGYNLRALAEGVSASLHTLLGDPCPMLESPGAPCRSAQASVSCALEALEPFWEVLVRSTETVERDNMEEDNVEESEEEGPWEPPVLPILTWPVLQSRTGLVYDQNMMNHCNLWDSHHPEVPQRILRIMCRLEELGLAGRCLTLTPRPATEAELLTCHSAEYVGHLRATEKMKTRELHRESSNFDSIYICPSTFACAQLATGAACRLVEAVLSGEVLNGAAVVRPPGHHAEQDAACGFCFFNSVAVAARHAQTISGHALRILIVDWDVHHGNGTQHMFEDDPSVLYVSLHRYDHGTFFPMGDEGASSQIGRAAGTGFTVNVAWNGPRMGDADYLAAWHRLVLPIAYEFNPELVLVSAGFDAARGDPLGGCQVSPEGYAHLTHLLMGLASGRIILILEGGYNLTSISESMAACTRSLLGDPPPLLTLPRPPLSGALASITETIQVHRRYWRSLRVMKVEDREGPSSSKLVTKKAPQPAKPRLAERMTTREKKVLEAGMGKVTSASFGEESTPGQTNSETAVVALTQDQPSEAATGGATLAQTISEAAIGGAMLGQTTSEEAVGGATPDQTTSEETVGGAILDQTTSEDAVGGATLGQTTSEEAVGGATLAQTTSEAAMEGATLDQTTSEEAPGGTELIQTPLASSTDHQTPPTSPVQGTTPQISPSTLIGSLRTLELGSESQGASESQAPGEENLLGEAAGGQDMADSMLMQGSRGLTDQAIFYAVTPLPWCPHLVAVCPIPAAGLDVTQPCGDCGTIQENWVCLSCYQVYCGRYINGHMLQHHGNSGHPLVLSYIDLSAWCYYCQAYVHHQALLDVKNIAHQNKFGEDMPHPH
Description: Inhibition of human recombinant histone deacetylase 6

Assay [6] relates to T-24. Kind of assay: Selectivity ratio of EC50 for histone H3 acetylation to EC50 for alpha-tubulin acetylation in human T24 cells.
Assay [7] relates to T-24. Kind of assay: Induction of alpha tubulin acetylation in human T24 cells at 1 uM preincubated 16 hrs before whole-cell lysate by Western blot analysis. The class given is functional, cell-based. (In general: A western blot detects proteins with antibodies after separation by electrophoresis.)

Active and inactive are the calls of the source. The calls are words filed in the database; no cut-off is given here.

Chain of Histone deacetylase 2 (Q92769 whole entry): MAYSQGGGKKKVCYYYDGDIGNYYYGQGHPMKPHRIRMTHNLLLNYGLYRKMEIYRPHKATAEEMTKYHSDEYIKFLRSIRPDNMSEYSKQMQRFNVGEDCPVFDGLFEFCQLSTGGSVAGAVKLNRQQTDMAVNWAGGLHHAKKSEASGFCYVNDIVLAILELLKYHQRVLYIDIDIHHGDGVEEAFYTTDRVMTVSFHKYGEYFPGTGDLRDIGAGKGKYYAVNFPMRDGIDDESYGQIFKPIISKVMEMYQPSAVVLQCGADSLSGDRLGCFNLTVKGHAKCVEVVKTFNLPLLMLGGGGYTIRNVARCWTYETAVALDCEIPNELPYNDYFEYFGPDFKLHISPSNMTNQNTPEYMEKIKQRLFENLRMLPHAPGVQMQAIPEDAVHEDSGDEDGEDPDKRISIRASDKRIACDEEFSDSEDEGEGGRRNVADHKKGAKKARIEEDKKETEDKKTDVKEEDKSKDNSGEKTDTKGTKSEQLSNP
Description for Histone deacetylase 2: Inhibition of human recombinant histone deacetylase 2

Consider `O=C(NO)c1ccc(CN2c3ccccc3NC(=O)[C@H]2Cc2ccccc2)cc1`, for which the figures for the EC50 in the assay with T-24 [1] and with T-24 [2] were 0.04 µM and 0.52 µM, respectively. In addition, the figures for the IC50 (at Histone deacetylase 8; on Histone deacetylase 2; in assay [5]) were 0.53 µM, 0.26 µM and 0.01 µM, respectively. The Ratio IC50 in the assay filed under Homo sapiens [3] is 26; in the assay filed under Homo sapiens [4], 53. For the same compound, in the assay on T-24 [6], the “Selectivity Index” value was greater than 13.

Take `O=C(NO)c1ccc(CN2c3ccccc3NC(=O)[C@@H]2Cc2cccs2)cc1`: the figures for the concentration giving a half-maximal response (EC50) with T-24 [1] and with T-24 [2] were 0.23 µM and 2.3 µM, respectively. Also, the IC50 (in general, the concentration that gives 50% inhibition) on Histone deacetylase 8 is 1.19 µM; against Histone deacetylase 2 it was 1.48 µM; in assay [5], 0.31 µM. Further, the Ratio IC50 came out at 5 in the assay listed under Homo sapiens [3] and 4 in the assay listed under Homo sapiens [4].

Regarding `O=C(NO)c1ccc(CN2C(=O)CNC(=O)[C@H]2Cc2cccs2)cc1`, the EC50 (as a rule, the concentration at which the effect is half-maximal) with T-24 [1] was found to be 2 µM; in the assay with T-24 [2], 9 µM. Besides, the concentration for half-maximal inhibition (IC50) on Histone deacetylase 8 was 0.44 µM; on Histone deacetylase 2, 3.47 µM; in assay [5] it was 0.16 µM. Besides, the Ratio IC50 turned out to be 22 in the assay listed under Homo sapiens [3] and 3 in the assay listed under Homo sapiens [4].

Take `O=C(NO)c1ccc(CN2C(=O)CNC(=O)[C@H]2Cc2ccccc2)cc1`: the figures for the half-maximal effective concentration (EC50) in the assay on T-24 [1] and in the assay with T-24 [2] were 1.49 µM and 23 µM, respectively. Besides, the IC50 amounted to 2.34 µM at Histone deacetylase 8, 5.54 µM at Histone deacetylase 2 and 0.17 µM in assay [5]. For the same compound, the Ratio IC50 in the assay filed under Homo sapiens [3] worked out at 33; in the assay listed under Homo sapiens [4], 14. For the same compound, the “Selectivity Index” value in the assay with T-24 [6] was greater than 13.

In the case of `O=C(NO)c1ccc(CN2C(=O)CNC(=O)[C@H]2Cc2c[nH]c3ccccc23)cc1`, the figures for the EC50 in the assay with T-24 [1] and with T-24 [2] were 2.87 µM and 12.1 µM, respectively. Further, the IC50 at Histone deacetylase 8 was found to be 1.21 µM; against Histone deacetylase 2, 1.81 µM; in assay [5], 0.11 µM. The results for the Ratio IC50 in the assay listed under Homo sapiens [3] and in the assay listed under Homo sapiens [4] were 17 and 11, respectively.

Take `CC(/C=C/C(=O)NO)=C\[C@@H](C)C(=O)c1ccc(N(C)C)cc1` (racemic) [TRICHOSTATIN]: the EC50 in the assay with T-24 [1] and with T-24 [2] was 0.01 µM each time.

For the compound `O=C(NO)c1ccc(CN2c3ccccc3NC(=O)[C@H]2Cc2cccs2)cc1`, the figures for the 50% effective concentration (EC50) in the assay on T-24 [1] and in the assay with T-24 [2] were 0.07 µM and 1.22 µM, respectively. The IC50 at Histone deacetylase 8 came to 0.69 µM; against Histone deacetylase 2 it was 0.87 µM; in [5], 0.04 µM. In addition, the Ratio IC50 in the assay listed under Homo sapiens [3] is 21; in the assay filed under Homo sapiens [4], 17. For the same compound, the result in the assay with T-24 [7] was Active. Also, the “Selectivity Index” value in the assay on T-24 [6] is on record as greater than 13.

As for `O=C(NO)c1ccc(CN2c3ccccc3NC(=O)[C@H]2Cc2ccc(F)c(F)c2)cc1`, the values for the half-inhibitory concentration (IC50) (on Histone deacetylase 8; on Histone deacetylase 2; in assay [5]) were 0.42 µM, 0.46 µM and 0.04 µM, respectively. Besides, the Ratio IC50 in the assay filed under Homo sapiens [3] was 11; in the assay filed under Homo sapiens [4], 10.

Consider `CC(C)(C)OC(=O)NCCCC[C@@H]1C(=O)Nc2ccccc2N1Cc1ccc(C(=O)NO)cc1`, for which the figures for the 50% effective concentration (EC50) with T-24 [1] and with T-24 [2] were 0.09 µM and 6.75 µM, respectively. Also, the IC50 was 1.15 µM on Histone deacetylase 8, 1.48 µM against Histone deacetylase 2 and 0.04 µM in assay [5]. Further, the figures for the Ratio IC50 in the assay filed under Homo sapiens [3] and in the assay listed under Homo sapiens [4] were 34 and 27, respectively. The “Ratio EC50” value in the assay on T-24 [6] is 75.

For `O=C(CCCCCCC(=O)Nc1ccc([C@H]2O[C@@H](CSc3nc(-c4ccccc4)c(-c4ccccc4)o3)C[C@@H](c3ccc(CO)cc3)O2)cc1)NO` [TUBACIN], the Selectivity Index in the assay on T-24 [6] turned out to be 75.

For `O=C(NO)c1ccc(CN2c3ccccc3NC(=O)[C@@H]2Cc2ccccc2)cc1`, the concentration giving a half-maximal response (EC50) in the assay on T-24 [1] was 0.32 µM; in the assay on T-24 [2], 1.9 µM. Besides, the 50% inhibitory concentration (IC50) on Histone deacetylase 8 came out at 0.21 µM; against Histone deacetylase 2, 0.46 µM; in [5] it was 0.22 µM. For the same compound, the results for the Ratio IC50 in the assay filed under Homo sapiens [3] and in the assay listed under Homo sapiens [4] were 2 and 1, respectively.

Take `O=C1CN(Cc2ccc(C(=O)NO)cc2)c2ccccc2N1`: the results for the concentration giving a half-maximal response (EC50) in the assay with T-24 [1] and in the assay on T-24 [2] were 1.01 µM and 3.58 µM, respectively. For the same compound, the IC50 at Histone deacetylase 8 was found to be 0.52 µM; against Histone deacetylase 2 it was 0.56 µM; in assay [5], 0.15 µM. Further, the Ratio IC50 was 4 in the assay listed under Homo sapiens [3] and 3 in the assay listed under Homo sapiens [4].

In the case of `O=C(NO)c1ccc(CN2c3ccccc3NC(=O)[C@H]2Cc2ccc(O)cc2)cc1`, the IC50 on Histone deacetylase 8 came out at 0.73 µM; against Histone deacetylase 2, 0.33 µM; in [5], 0.01 µM. In addition, the Ratio IC50 in the assay listed under Homo sapiens [3] was determined as 41; in the assay filed under Homo sapiens [4], 91.

Turning to `O=C(NO)c1ccc(CN2c3ccccc3NC(=O)[C@H]2CCc2ccccc2)cc1`, the IC50 at Histone deacetylase 8 was found to be 0.64 µM; on Histone deacetylase 2, 0.52 µM; in assay [5], 0.01 µM. Moreover, the Ratio IC50 in the assay listed under Homo sapiens [3] came out at 40; in the assay filed under Homo sapiens [4], 49.

Consider `CC(C)(C)Oc1ccc(C[C@@H]2C(=O)Nc3ccccc3N2Cc2ccc(C(=O)NO)cc2)cc1`, for which the EC50 with T-24 [1] is 0.08 µM; in the assay with T-24 [2], 2.75 µM. Also, the figures for the half-inhibitory concentration (IC50) (on Histone deacetylase 8; against Histone deacetylase 2; in assay [5]) were 0.25 µM, 1.44 µM and 0.05 µM, respectively. Moreover, the Ratio IC50 in the assay filed under Homo sapiens [3] worked out at 28; in the assay filed under Homo sapiens [4], 5. Further, the “Selectivity Index” value in the assay on T-24 [6] is greater than 13.

(Values after ChEMBL document CHEMBL1143301, “Novel HDAC6 isoform selective chiral small molecule histone deacetylase inhibitors” (Bioorg Med Chem Lett, 2009).)
